# According to PMC3645732, “A Differential Redox Regulation of the Pathways Metabolizing Glyceraldehyde-3-Phosphate Tunes the Production of Reducing Power in the Cytosol of Plant Cells” (International Journal of Molecular Sciences, 2013):
# Assays:
# [1] = target: T1, np-Ga3PDHase (non-phosphorylating NADP+-dependent glyceraldehyde-3-phosphate dehydrogenase, EC 1.2.1.9) (Triticum aestivum, UniProt Q8LK61); experiment: Kd from protection against H2O2 inactivation of purified enzyme (Mildvan and Leigh plot); format: biochemical
# T1 construct: gene GAPN; recombinant wheat enzyme (NCBI DQ268762), pRSETB/TagapN, E. coli
# T1 sequence (Q8LK61 1-496): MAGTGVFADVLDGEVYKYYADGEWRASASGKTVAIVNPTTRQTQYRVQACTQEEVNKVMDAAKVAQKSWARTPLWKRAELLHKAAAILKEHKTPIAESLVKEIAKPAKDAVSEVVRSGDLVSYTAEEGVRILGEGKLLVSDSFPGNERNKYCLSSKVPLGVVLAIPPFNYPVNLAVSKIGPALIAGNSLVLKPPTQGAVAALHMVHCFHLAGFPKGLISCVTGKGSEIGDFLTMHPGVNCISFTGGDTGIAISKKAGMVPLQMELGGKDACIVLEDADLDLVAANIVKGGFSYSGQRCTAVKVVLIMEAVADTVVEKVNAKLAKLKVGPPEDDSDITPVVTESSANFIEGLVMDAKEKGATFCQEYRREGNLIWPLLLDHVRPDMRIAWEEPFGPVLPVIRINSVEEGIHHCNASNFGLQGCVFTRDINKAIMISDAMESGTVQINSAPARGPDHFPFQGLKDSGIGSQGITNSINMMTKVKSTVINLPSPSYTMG
# [2] = target: T2, Ga3PDHase (phosphorylating NAD+-dependent glyceraldehyde-3-phosphate dehydrogenase, EC 1.2.1.12) (Triticum aestivum, UniProt A5YVV3); experiment: Kd from protection against H2O2 inactivation in presence of NAD+ (Mildvan and Leigh plot); S0.[…] by enzyme kinetics; format: biochemical
# T2 construct: gene GAPC; recombinant wheat gapC (NCBI EF592180), homotetramer, E. coli
# T2 sequence (A5YVV3 1-337): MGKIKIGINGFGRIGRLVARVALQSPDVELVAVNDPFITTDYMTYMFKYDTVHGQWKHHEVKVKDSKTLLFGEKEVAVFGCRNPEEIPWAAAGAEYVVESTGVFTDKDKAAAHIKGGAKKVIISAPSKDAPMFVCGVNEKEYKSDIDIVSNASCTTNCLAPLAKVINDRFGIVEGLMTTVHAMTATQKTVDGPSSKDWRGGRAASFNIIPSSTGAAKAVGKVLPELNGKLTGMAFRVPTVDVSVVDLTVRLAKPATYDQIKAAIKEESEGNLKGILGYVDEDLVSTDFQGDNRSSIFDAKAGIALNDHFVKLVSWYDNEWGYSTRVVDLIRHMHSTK
Kd [1] [µM],Kd [2] [µM],SMILES
2.5,–,NC(=O)c1ccc[n+]([C@@H]2O[C@H](COP(=O)([O-])OP(=O)(O)OC[C@H]3O[C@@H](n4cnc5c(N)ncnc54)[C@H](OP(=O)(O)O)[C@@H]3O)[C@@H](O)[C@H]2O)c1 [NADP^+]
–,115,O=C[C@H](O)COP(=O)(O)O [glyceraldehyde-3-phosphate]
